The target of series [1] is T1, human CCK2R (Homo sapiens, UniProt P32239).
T1 construct: expressed in transfected cells; host or cells: A431 human epidermoid carcinoma cells, stably transfected (A431-CCK2R); originally provided by Dr. Luigi Aloj
T1 sequence (P32239 1-447): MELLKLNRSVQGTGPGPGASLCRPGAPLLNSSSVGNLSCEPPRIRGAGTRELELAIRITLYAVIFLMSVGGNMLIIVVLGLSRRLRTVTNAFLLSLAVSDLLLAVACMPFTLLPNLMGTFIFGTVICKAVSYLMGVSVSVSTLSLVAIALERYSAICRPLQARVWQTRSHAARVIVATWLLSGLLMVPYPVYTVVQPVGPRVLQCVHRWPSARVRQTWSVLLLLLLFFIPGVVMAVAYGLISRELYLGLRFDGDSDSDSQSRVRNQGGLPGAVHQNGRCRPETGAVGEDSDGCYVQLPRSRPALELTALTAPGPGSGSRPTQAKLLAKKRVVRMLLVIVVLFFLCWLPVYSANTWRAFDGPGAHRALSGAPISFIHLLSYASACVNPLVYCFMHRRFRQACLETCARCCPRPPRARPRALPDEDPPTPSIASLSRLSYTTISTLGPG
As to the kind of experiment: Calcium mobilization assay (fluo-4 AM) on A431-CCK2R cells. The series is classed as cell-based. As to conditions: normalized to 10^−6 M pentagastrin, mean ± SEM of at least three independent experiments in triplicates. The text has this: A431 human epidermoid carcinoma cells overexpressing human CCK2R through stable transfection (A431-CCK2R) and the same cell line transfected with the empty vector (A431-mock) were used for cell assays. The cells are constantly available in our laboratory and were originally provided by Dr. Luigi Aloj. All cell culture media and reagents were obtained from Invitrogen Corporation (Lofer, Austria) or Sigma-Aldrich (Darmstadt, Germany). Dulbecco’s modified Eagle’s medium (DMEM) supplemented with 10% (v/v) fetal bovine serum and 1% of 100x penicillin−streptomycin−glutamine was used for cell culture. The cells were passaged three times per week using a 10x 2.5% trypsin-EDTA solution in a 1:2–1:3 ratio.
Analog-induced receptor activation was evaluated by a calcium mobilization assay using the calcium-sensitive dye fluo-4 AM (ThermoFisher Scientific, Montigny-Le-Bretonneux, France), as previously described. Briefly, A431-CCK2R cells were seeded (60,000/well) in flat clear bottom black 96-well plates (Corning, Bagneaux-sur-Loing, France) coated with poly-L-ornithine (100 µg/mL, 1 h, 37 °C) (Sigma Aldrich, Saint Quentin Fallavier, France). Cytosolic Ca^2+ variations were measured before and after application of 50 µL of graded concentrations of the investigated peptides in the vicinity of the cells, and the effects on Ca^2+ mobilization were measured. Data were background corrected and normalized for the amplitudes caused by the medium alone (0%, no self-effect) or 10^−6 M pentagastrin (100%, maximal Ca^2+ mobilization response). Prism 4.0 software was used to calculate the EC50 values and the results were expressed as mean ± SEM for at least three independent experiments performed in triplicates.
(Calcium flux is commonly read through the fluorescence of an indicator in the cells.)

The conditions of series [2]: cited from earlier work. As for the experimental part: (−2.33 ± 0.23) > [^111In]In-DOTA-MGS5 (−2.0 ± 0.1) > [^111In]In-DOTA-[2Nal^8]MGS5 (−1.71 ± 0.19) > [^111In]In-DOTA-[DLys^1]MGS5 (−1.31 ± 0.11). […] For the time point of 24 h after incubation, lowest values were found for [^111In] ...
Series [3] in a line: Distribution coefficient (LogD) in octanol/PBS. The class given is physicochemical. As to conditions: radiolabeled peptide (111In-labeled where the label names no radiometal); shake-flask octanol/PBS, 100 pmol/mL, 15 min shaking at 1500 rpm, γ-counter; mean ± SD, n = 8. How it is done: The distribution coefficient (LogD) in octanol/PBS was determined by mixing 0.5 mL of the radiolabeled DOTA peptides diluted in PBS (100 pmol/mL) and 0.5 mL octanol in a 1.5 mL microcentrifuge tube (n = 8). After shaking for 15 min (MS3 Basic, IKA, Staufen, Germany) at 1500 rpm and a waiting time of 10 min to ensure appropriate separation of the two phases, 100 µL aliquots of each phase were pipetted into 4.5 mL tubes. The tubes were measured using a γ-counter (2480 Wizard2 3″, PerkinElmer Life Sciences and Analytical Instruments, formerly Wallac Oy, Turku, Finland) and the LogD value was determined using following equation: LogD=Log(cpmoctanol phase/cpmPBS phase)

Series [4] is described as follows: Complex stability in PBS. The class given is physicochemical. The note with it: 1000 pmol/mL in PBS, room temperature, 4 h after incubation, n = 1. How it is done:
In vitro stability studies were performed in human serum (n = 2). The radiolabeled peptides (1000 pmol/mL) were incubated at 37 °C and a sample of 100 μL was taken at 1, 4, and 24 h after incubation. After the precipitation of proteins with ACN at 1:1.5 (v/v), centrifugation (14,000 rpm, 2 min, centrifuge 5424, Eppendorf AG, Germany) and dilution with water at 1:1 (v/v), an aliquot of 100 μL of this solution was analyzed by HPLC. Radioligand breakdown was monitored and the percentage of intact radiopeptide was calculated using Chromeleon Dionex Software (Version 7.2.9.11323). Additionally, the radiolabeled peptides (1000 pmol/mL) were incubated in PBS (n = 1) at room temperature to confirm the complex stability as a control.

Series [5] in a line: Biodistribution in BALB/c nude mice bearing A431-CCK2R/A431-mock xenografts. The note with it: female, mouse, iv, 20 pmol, total radioactivity, 20 pmol, gallium-68, 1 h p.i., mean ± SD n = 4; for tissue uptake at 1 h: xenografted BALB/c nude mice, i.v.; for tissue to tissue ratio at 1 h: BALB/c nude mice. The class given is in vivo. As for the experimental part: The overall biodistribution and tumor targeting properties of selected radiolabeled peptides were evaluated in female athymic BALB/c nude mice (Charles River, Sulzfeld, Germany, age of 7 to 9 weeks). After tumor induction with 2 × 10^6 A431-CCK2R or A431-mock cells (subcutaneously injected in 200 μL DMEM into the right and left flank) and a waiting period of 10–14 days (sufficient to achieve tumors of ∼0.25 g), mice were randomly divided into groups of four and treated with a bolus injection of 150 µL of the injectable solution containing the radiolabeled peptide via a lateral tail vein to achieve an injected radioactivity of 150–200 kBq and a total injected peptide amount of ~20 pmol (n = 4 for each radiopeptide). For DOTA-[(N-Me)1Nal^8]MGS5, additional biodistribution studies were performed with gallium-68 (~0.5 MBq, 20 pmol) and lutetium-177 (~0.5 MBq, 20 pmol). The animals were euthanatized by cervical dislocation at 1 h (gallium-68) or 4 h p.i. (indium-111/ lutetium-177). The tumors and other tissues (blood, lung, heart, muscle, spleen, intestine, liver, kidney, stomach, and pancreas) were dissected, weighed, and the radioactivity measured in the γ-counter. The rest of the body and a standard of the solution injected was also measured together with the collected samples. The percentage of injected activity per gram of tissue (% IA/g) and the tumor-to-organ activity ratio of selected tissues were calculated for each mouse and time point studied. Origin software (Microcal Origin 6.1, Northampton, MA, USA) was used for statistical analysis (independent t-test for two populations; significance level p < 0.05).

Like-named read-outs stand apart in the source and are kept apart here.

Broadly, the EC50 is the concentration at which the effect is half-maximal.

Regarding `CCCC[C@@H](C(=O)N[C@@H](CC(=O)O)C(=O)N[C@@H](Cc1cccc2ccccc12)C(N)=O)N(C)C(=O)[C@H](Cc1c[nH]c2ccccc12)NC(=O)CNC(=O)[C@H](Cc1ccc(O)cc1)NC(=O)[C@H](C)NC(=O)[C@@H](CCC(=O)O)NC(=O)CN1CCN(CC(=O)O)CCN(CC(=O)O)CCN(CC(=O)O)CC1` [DOTA-MGS5, DOTA-DGlu-Ala-Tyr-Gly-Trp-(N-Me)Nle-Asp-1Nal-NH2, reference compound], in series [1], the EC50 was 7.9 ± 1.9 nM. In addition, in series [2], the LogD is recorded as −2.0 ± 0.1.

Turning to `CCCC[C@@H](C(=O)N[C@@H](CC(=O)O)C(=O)N(C)[C@@H](Cc1cccc2ccccc12)C(N)=O)N(C)C(=O)[C@H](Cc1c[nH]c2ccccc12)NC(=O)CNC(=O)[C@H](Cc1ccc(O)cc1)NC(=O)[C@H](C)NC(=O)[C@@H](CCC(=O)O)NC(=O)CN1CCN(CC(=O)O)CCN(CC(=O)O)CCN(CC(=O)O)CC1` [[^68Ga]Ga-DOTA-[(N-Me)1Nal^8]MGS5, metal not drawn], in series [3], the LogD is reported as −2.2 ± 0.1. For the same compound, in series [4], the “Stability of the DOTA-complex in PBS” value is recorded as 99.2%. Further, the tissue uptake at 1 h in series [5] (BALB/c nude, heart, read-out: Uptake in heart) was found to be 0.95 ± 0.32 %ID/g; in series [5] (BALB/c nude, intestine, read-out: Uptake in intestine), 0.82 ± 0.18 %ID/g; in series [5] (BALB/c nude, lung, read-out: Uptake in lung), 1.61 ± 0.42 %ID/g; in series [5] (BALB/c nude, muscle, read-out: Uptake in muscle) it was 0.45 ± 0.08 %ID/g; in series [5] (BALB/c nude, spleen, read-out: Uptake in spleen), 1.19 ± 0.25 %ID/g; in series [5] (athymic BALB/c nude, A431-CCK2R xenograft, read-out: Uptake in A431-CCK2R xenograft), 15.7 ± 2.21 %ID/g. The tissue uptake at 1 h in series [5] (athymic BALB/c nude, A431-mock xenograft, read-out: Uptake in A431-mock xenograft) turned out to be 1.51 ± 0.98 %ID/g; in series [5] (athymic BALB/c nude, blood, read-out: Uptake in blood), 2.82 ± 0.88 %ID/g; in series [5] (athymic BALB/c nude, kidneys, read-out: Uptake in kidneys), 7.7 ± 3.1 %ID/g; in series [5] (athymic BALB/c nude, liver, read-out: Uptake in liver), 2.25 ± 0.55 %ID/g; in series [5] (athymic BALB/c nude, pancreas, read-out: Uptake in pancreas), 0.87 ± 0.29 %ID/g; in series [5] (athymic BALB/c nude, stomach, read-out: Uptake in stomach), 1.63 ± 0.41 %ID/g. Further, the tissue to tissue ratio at 1 h in series [5] (athymic BALB/c nude, A431-CCK2R xenograft / blood, A431-CCK2R xenograft, read-out: tumor-to-organ ratio: blood) was found to be 6.03 ± 2.26; in series [5] (athymic BALB/c nude, A431-CCK2R xenograft / kidney, A431-CCK2R xenograft, read-out: tumor-to-organ ratio: kidney) it was 2.36 ± 1.14; in series [5] (athymic BALB/c nude, A431-CCK2R xenograft / stomach, A431-CCK2R xenograft, read-out: tumor-to-organ ratio: stomach), 10.2 ± 3.5.

These data come from publication PMC9959130, “Effects of Side Chain and Peptide Bond Modifications on the Targeting Properties of Stabilized Minigastrin Analogs” (Pharmaceuticals, 2023).
